Test results reported in patent US20200010910A1, “Cytotoxic Chemotherapy-Based Predictive Assays for Acute Myeloid Leukemia” (The Regents of The University of California, priority 2017, published 2020).
pIC50: −log10 of the molar value.

How the values were obtained:
[1] = chemotherapy; cited from earlier work
[2] = safety of radiolabeled microdose in patients; conditions: IV microdose, 1% of the therapeutic dose
Description: Microdoses of the [^14C]Carboplatin were administered to human cancer patients as a diagnostic reagent, followed by full dose platinum-based chemotherapy and evaluation of response. Within four weeks of the [^14C]carboplatin microdose, these patients received standard of care chemotherapy for their disease, which included either carboplatin or cisplatin. The patient population consisted of non-small cell lung cancer patients (NSCLC), stage IV with measurable lesions, and bladder transitional cell carcinoma (TCC) patients, stage II disease and above for neoadjuvant treatment, or stage III and IV metastatic disease with measurable lesions for palliative chemotherapy. Patients were identified for this study as having measurable lesions using the Response Evaluation Criteria in Solid Tumor (RECIST), an Eastern Cooperative Oncology Group performance status of <2, and adequate bone marrow and vital organ function. PBMC and tumor tissue were collected from the patients for analysis of carboplatin-DNA monoadduct frequencies. Toxicity of the [^14C]carboplatin diagnostic reagent administered as a microdose was assessed using Common Terminology Criteria for Adverse Events (CTCAE). Toxicities of grade 3 and above were also collected for patient specific toxic response to full dose chemotherapy for correlation analysis to carboplatin-DNA monoadduct frequency. Patient response to chemotherapy was evaluated using the RECIST for correlation to carboplatin-DNA monoadduct frequency.
The dose of carboplatin in the diagnostic microdose was chosen to be sub-toxic and non-therapeutic, to minimize patient chemical and radiation exposure, and to result in AMS measurable carboplatin-DNA monoadducts. Nineteen patients have been administered at least one microdose of [^14C]carboplatin via IV infusion as a diagnostic reagent. Patient toxicity related to the microdose was monitored from the time of IV microdose until the patients received their first chemotherapy. […] The total radioactive dose given to a 75 kg patient after an IV microdose of [^14C]carboplatin is calculated to be 338 μCi. […]

[3] = system: tumor biopsy sample from the bone marrow; experiment: microdose-induced oxaliplatin-DNA adducts in patient tumor biopsy; assay type: in vivo, human; conditions: metastatic breast patient; 48 hours post microdose; n=2 repeats
Description: Therefore, a tumor biopsy sample from the bone marrow of this same metastatic breast patient was collected 48 hours post microdose administration and analyzed by AMS for oxaliplatin-DNA adducts. […] Therefore, in one embodiment, a useful range of oxaliplatin-DNA adduct frequency after microdosing is 0.5-50 adducts per 10^8 nt.

5637 [4] = experiment: MTT assay IC50, bladder cancer cell line; assay type: cell-based, human; conditions: 72 hours
Description: Thus, we measured the IC50 of the six NSCLC cell lines from Example 2 to both cisplatin and carboplatin to determine if the sensitivity of these six NSCLC cell lines to the two drugs are correlated.
(§1) Drug-DNA adduct formation and repair was measured by accelerator mass spectrometry.
(§2) These two cell lines were also cultured with a range of concentrations of cisplatin, carboplatin, gemcitabine, doxorubicin, methotrexate and vinblastine for 72 hours to determine IC50 for these other drugs (FIG. 16C). These drugs were chosen because of their frequent use in the treatment of bladder cancer.

[5] = system: five bladder cancer cell lines (5637, T24, TCCSUP, HT1197, and J82); experiment: oxaliplatin-DNA adducts by AMS in cell culture; assay type: cell-based; conditions: 4 hours
Description: Cells were seeded in 60-mm dishes at a density of 1×10^6 cells/dish and allowed to attach overnight in a 37° C. humidified atmosphere containing 5% C02. […] The cells were then washed twice with phosphate-buffered solution (PBS) and maintained thereafter with oxaliplatin-free culture media. DNA was harvested at hours 0, 2, 4, 8, 24 hours using the modified Wizard procedure described previously. Ten micrograms of DNA per sample was converted to graphite and measured by AMS for ^14C quantification. Triplicate sets of AMS experiments were performed and the data was plotted as time vs oxaliplatin-DNA adducts per 10^8 nt. […] Oxaliplatin-DNA monoadducts could be detected in all cell lines at all time points. […] Therefore, drug-DNA damage from microdoses of oxaliplatin are predictive of the extent of DNA modification caused by the therapeutic dose in cell culture.

[6] = human plasma pharmacokinetics of [14C]oxaliplatin microdose; assay type: in vivo; conditions: metastatic breast cancer patient; IV microdose
Description: Peripheral blood specimens were drawn into BD Vacutainer CPT™ tubes with sodium heparin from the other arm at specific time points before and after the administration of the microdose. Plasma samples collected at −5 min, 5 min, 15 min, 30 min, 2 h, 4 h, 8 h, 24 h, and 48 h post microdose injection were analyzed by liquid scintillation counting (FIG. 17A).

5637R [7] = experiment: MTT assay IC50, oxaliplatin-resistant bladder cancer sub-line; assay type: cell-based, human
Description: as §1
To confirm that 5637 was the original ATCC cell line, and that 5637R originated from the parental 5637 cell line, both cultures were sent to the ATCC Cell Line Authentication Service for cell verification per the ATCC protocol. More specifically, fifteen short tandem repeat (STR) loci plus the gender determining locus, amelogenin, were amplified using the commercially available PowerPlex® 16HS Kit from Promega.
as §2

PBMC = experiment: microdose-induced oxaliplatin-DNA adducts in patients; assay type: in vivo, human
Description: The plasma samples were additionally processed to isolate PBMC, and the DNA was extracted and analyzed using AMS to calculate the oxaliplatin-DNA adduct frequency (both monoadducts and diadducts combined) (FIG. 17B). […] These adduct levels then decrease substantially out to 48 hours post microdosing. […] Overall, the plasma PK and time course of oxaliplatin-DNA adduct formation and repair in PBMC allowed determination of the best time to dose patients prior to biopsy in order to maximize the oxaliplatin-DNA adduct formation, allow for repair in those patients with high repair capacity, minimize the risk of radioactive contamination of PBMC and tumor samples, and also minimize the risk of radioactive contamination of the operating room by blood-borne radiocarbon.
Plasma samples were collected, filtered, and counted by liquid scintillation counting to determine plasma oxaliplatin levels. […] The range of microdose-induced adduct levels (frequencies) for the three colorectal patients was 0.1-6 adducts per 10^8 nt.

5637R [8] = experiment: oxaliplatin-DNA adduct formation and repair by AMS; assay type: cell-based, human
Description: (§3) To characterize the oxaliplatin-DNA adduct frequency in these cell lines, cells from each cell line were seeded in 60-mm dishes at a density of 1×10^6 cells/dish and allowed to attach overnight in a 37° C. humidified atmosphere containing 5% CO2. […] The cells were then washed twice with phosphate-buffered solution (PBS) and maintained thereafter with oxaliplatin-free culture media. DNA was harvested at hours 0, 2, 4, 8, 24, 28 and 48 hours using a Promega Wizard DNA Purification Kit. Ten micrograms of DNA per sample was converted to graphite and measured by AMS for ^14C quantification. Triplicate sets of AMS experiments were performed and the data was plotted as time vs oxaliplatin-DNA adducts per 10^8 nt.

5637 [9] = experiment: oxaliplatin-DNA adduct formation and repair by AMS; assay type: cell-based, human
Description: as §3

[10] = sterile solution in water, storage at −20° C.
Description: Radiolabeled carboplatin containing C^14 carbon atoms in the cyclobutane dicarboxylic acid group was formulated for human use as a sterile, pyrogen free solution at 5 mg/mL in water.

5637R [11] = experiment: CellTiter 96 Aqueous cell proliferation assay; assay type: cell-based; conditions: Homo sapiens, 72 hr continuous treatment
Text: (§4) Correlation of IC50 to the AML induction drugs Dox and Ara-C were first performed with the adherent bladder cancer cell lines 5637 and 5637R for cytarabine and with the adherent ovarian cancer cell lines A2780 and A2780ADR for doxorubicin. Cell lines 5637 and 5637R (Ara-C resistant) have been described previously (20). A2780 and A2780ADR (doxorubicin resistant) were purchased from Sigma-Aldrich and grown as recommended. IC50 values were obtained by plating 4000 cells per well in 96-well plates the night before treatment, and then allowing the cells to adhere over night. Leukemia cell lines capable of continuous proliferation in suspension and having differential sensitivities to Dox and Ara-C were also obtained for correlation analysis. MV-4-11 (acute monocytic leukemia) and THP-1 (acute monocytic leukemia) human cell lines were purchased from American Type Culture Collection (ATCC, Manassas, Va.). MOLM-13 (acute myeloid leukemia) human cells were purchased from AddexBio (San Diego, Calif.). For leukemia cell lines (suspension cultures), approximately 8,000-11,000 cells were seeded per well in 96-well plates the day of treatment. MV-4-11 cells were grown in IMDM (Iscove's Modified Dulbecco's Media) with 10% FBS, 100 U/ml penicillin, and 100 μg/ml streptomycin. THP-1, A2780, and A2780ADR cells were grown in RPMI-1640 media with 10% FBS, 100 U/ml penicillin, and 100 μg/ml streptomycin. 5637, 5637R, and MOLM-13 cells were grown in RPMI-1640 media with 20% FBS, 100 U/ml penicillin, and 100 μg/ml streptomycin. All cells were cultured at 37° C. in a humidified incubator. The cells were then incubated with increasing doses of cytarabine or doxorubicin continuously for 72 hours. IC50 values were determined using the CellTiter 96 Aqueous Non-Radioactive Cell Proliferation Assay (Promega). […] As shown, 5637 and 5673R have differential sensitivity to cytarabine, while A2780 and A2780ADR have differential sensitivity to doxorubicin. The leukemic suspension cell lines also have differential sensitivity to these two drugs.

5637 [12] = experiment: CellTiter 96 Aqueous cell proliferation assay; assay type: cell-based; conditions: Homo sapiens, 72 hr continuous treatment
Text: as §4

MOLM-13 [13] = experiment: CellTiter 96 Aqueous cell proliferation assay; assay type: cell-based; conditions: Homo sapiens, 72 hr continuous treatment
Text: as §4

THP-1 [14] = experiment: CellTiter 96 Aqueous cell proliferation assay; assay type: cell-based; conditions: Homo sapiens, 72 hr continuous treatment
Text: as §4

MV-4-11 = experiment: CellTiter 96 Aqueous cell proliferation assay; assay type: cell-based; conditions: Homo sapiens, MV4-11, 72 hr continuous treatment
Text: as §4

[15] = system: 5637 and 5637R bladder cancer cell lines; experiment: cytarabine-DNA adducts by AMS, CIV and bolus type treatment; assay type: cell-based, human; conditions: low dose or high dose; CIV and bolus treatment regimens
Description: Sensitive and resistant bladder cancer cells were treated with Ara-C in culture. Two treatment conditions were used, one to mimic clinically continuous infusion (CIV) and one to mimic clinically bolus infusion (bolus infusions use a much higher Ara-c dose). The day before treatment, one million bladder cancer cells were seeded in 60-mm dishes and allowed to attach overnight. To simulate CIV treatment, the bladder cancer cell lines were exposed in growth medium with a low (10 nM) or a high (1 μM) dose of ARA-C supplemented with 8 nM ^14C-labeled ARA-C(1000 dpm/mL-20-0.4 mCi/mmol specific activity (Moravek Biochemicals, Inc.) over 24 h (FIG. 25A). At 24 hrs, the cells were harvested and washed for subsequent DNA isolation using the Wizard Genomic DNA Purification Kit. To simulate bolus treatment, the bladder cancer cell lines were exposed in growth medium with a low dose (3 μM) or a high dose ([…]; a highly toxic concentration for these cell lines) supplemented with 0.8 nM ^14C-labeled ARA-C (0.0001 mCi/mmol specific activity) for 4 h, followed by 20 h in drug-free media (FIG. 25B). After a 4-hour incubation, the cells were washed three times with PBS and cultured in drug-free media for an additional 20 hours. DNA from cells isolated at 24 hours was then purified. […] The ratios of ^14C to total C were measured by AMS, and drug-DNA adducts per ten million nucleotides were calculated.

MOLM-13 [16] = experiment: ARA-C incorporation into DNA by AMS; assay type: cell-based, human; conditions: MOLM-13 (most sensitive); 1.6 nM or 16 nM ARA-C 24 hrs
Description: (§5) MV-4-11, THP-1, and MOLM-13 cells are human, immortalized, myelogenous leukemia cell lines that proliferate continuously in suspension. These cell lines serve as a cell culture model for AML. Suspension cultures consisting of two million cells in […] culture dishes were treated with ARA-C for 24 hrs (to simulate CIV) prior to DNA isolation. The cultures were dosed with a low (1.6 nM) or a high (16 nM) dose of ARA-C supplemented with 0.8 nM ^14C-labeled ARA-C (100 dpm/mL, 2.4-16.7 mCi/mmol specific activity), and isolated DNA was analyzed by AMS to determine drug-DNA adduct levels. The suspension cell lines were dosed in primary cell media (IMDM+20% BIT9500 serum substitute, 20 ng/mL IL-3, 10 ng/mL IL-6, 20 ng/mL G-CSF, 20 ng/mL GM-CSF, 50 ng/mL SCF) to mimic the dosing conditions that will be used for patient-derived AML samples. This media is used for short term culturing of primary AML cells that are previously collected from patients, frozen and stored in a biobank.

THP-1 [17] = experiment: ARA-C incorporation into DNA by AMS; assay type: cell-based, human; conditions: THP-1 (least sensitive); 1.6 nM or 16 nM ARA-C 24 hrs
Description: as §5

[18] = 24 hour culture without oxaliplatin

SMILES: O=C1[O][Pt]2([NH][C@@H]3CCCC[C@H]3[NH]2)[O]C1=O [oxaliplatin]
- peak human oxaliplatin plasma concentration during chemotherapy [1]: 10 µM
- clinical side effects [2]: None of the clinical side effects associated with standard therapeutic doses of oxaliplatin were observed
- oxaliplatin-DNA adduct frequency [3]: 14.6±4.9 per 10^8 nt
- pIC50 5637 [4]: 5.61
- DNA damage concentrations (oxaliplatin-DNA adducts) ([5]; microdose 0.1 μM oxaliplatin): 50-100 adducts per 10^8 nt
- DNA damage concentrations (oxaliplatin-DNA adducts) ([5]; therapeutic dose 10 μM oxaliplatin): 5,000-10,000 adducts per 10^8 nt
- T1/2 (α), first (fast) phase [6]: 13.3 min
- increase of IC50 of 5637R compared to parental 5637 (5637R [7]): approximately 10 fold
- pIC50 (5637R [7]; 5637R, 72 hours): 4.56
- maximum oxaliplatin-DNA adducts in PBMC (PBMC; metastatic breast cancer patient, first 4 hours after microdose): 8 adducts per 10^8 nt
- range of microdose-induced adduct levels (frequencies) (PBMC; three colorectal patients, PBMC): 0.1-6 adducts per 10^8 nt
- oxaliplatin-DNA adducts at 24 hours (5637R [8]; 10 μM for 24 hours): 259.2±37.3 adducts per 10^8 nucleotide
- repair rate (5637R [8]; [18]): 3.48±0.15 adducts per 10^8 nucleotide-hour
- area under curve (AUC) of oxaliplatin-DNA adducts (5637R [8]; 48 hour study period): 9,426±2457 adducts per 10^8 nucleotide-hour
- oxaliplatin-DNA adducts at 24 hours (5637 [9]; 10 μM for 24 hours): 710.0±32.2 adducts per 10^8 nucleotide
- repair rate 5637 [9, 18]: 1.34±0.30 adducts per 10^8 nucleotides-hour
- area under curve (AUC) of oxaliplatin-DNA adducts (5637 [9]; 48 hour study period): 27,720±2,985 adducts per 10^8 nucleotide-hour
- loss of radiopurity per year [10]: < 2%

SMILES: Nc1ccn([C@@H]2O[C@H](CO)[C@@H](O)[C@@H]2O)c(=O)n1 [cytarabine]
- pIC50 (5637R [11]): 4.22
- pIC50 5637 [12]: 5.25
- pIC50 (MOLM-13 [13]): 7.74
- pIC50 (THP-1 [14]): 5.36
- pIC50 (MV-4-11): 6.45
- cytarabine-DNA adducts in resistant 5637R compared to parent 5637 [15]: fewer cytarabine-DNA adducts
- levels of ARA-C incorporation among three AML cell lines (MOLM-13 [16]): highest levels of ARA-C incorporation
- levels of ARA-C incorporation among three AML cell lines (THP-1 [17]): lowest levels of ARA-C incorporation
